Where “and” joins values, the source holds several entries; their conditions need not be identical. Equal values may be shown once. Entries after “also recorded” stand apart in the source; their conditions may differ. Where a name gives a salt, the structure may show the parent alone.
Experiments:
[1] = tested on: mean arterial blood pressure; test: mean arterial blood pressure recorded in the urethane anaesthetised rats of the bladder model
Description: The body temperature was maintained at 37° C. by means of an heated small operating table and 2 red light heating lamps. The left carotid artery was prepared and a catheter for continuous blood pressure measurement was inserted and connected to a Statham pressure transducer (Model P23 Db) and connected with a computer-controlled physiological recorder (PMS PR 800, Mumed Systems Ltd London, GB).
For intraduodenal drug administration a polyethylene catheter was inserted into the upper part of the duodenum, about 5 cm downwards from the pylorus and fixed with a purse-string suture. Bilateral ureters were ligated proximally to the bladder to prevent the bladder filling with urine. Urine of the kidneys was drained onto cotton swabs within the abdomen. The urinary bladder was catheterised via the urethra by use of PE 50 polyethylene tubing filled with physiological saline and secured in place by a ligature at the lower part of the urethra. Using a “T”-connector, the bladder catheter was connected to a Statham pressure transducer (Model P23 Db) connected with the physiological recorder (PMS PR 800) to measure intravesicular pressure and to a Infusion pump (TSE, FRG). Continuous recordings of intravesicular pressure and arterial blood pressure were captured onto a 4 channel Linearcorder WR3310 (Western Graphtec, Inc., USA). The experiment was started infusing (0.05 ml/min) the bladder with warmed saline (37-38° C.) to evoke rhythmic bladder contractions by means an infusion pump up to a maximal volume of 1.0 ml. The infusion is stopped after reaching the final volume or with the start of rhythmic bladder contractions.

[2] = tested on: volume-induced rhythmic urinary bladder contractions; test: volume-induced rhythmic urinary bladder contractions in urethane anaesthetised rats (rat model of overactive bladder); type: in vivo, Sprague Dawley rat; conditions: for presence/absence of bladder contractions (block grade), individual animal: 55 min period, Table 3; for decrease in frequency, individual animal / duration of block, individual animal / increase in frequency, individual animal / number of episodes of block per animal: individual animals; for mean pressure peaks of the amplitude diminished/reduced by: reduction
Description: In the search for new drugs compounds are of interest which affect the central nervous system circuits involved in micturation as well as the peripheral nerves resulting in a decrease in the frequency of the voiding reflex without any effect on bladder contractility. […] The method utilises spontaneous, volume-induced contractions of the urinary bladder in anaesthetised rats and was developed and first described by Dray (J. Pharmacol. Meth. 13:157-165, 1985) to assess the central activity of substances with opioid properties on bladder function. As this model clearly mimics the interplay between smooth muscle function and neuronal control thereof, this model can be also used to predict drug effects in a different disease, i.e. irritable bowl syndrome (IBS).
Aim of the study: To characterise the effects of the analgesic flupirtine maleate on the bladder function we used the model volume-induced contractions of urinary bladder in urethane anaesthetised rats. […] The compounds at the dose range 0.1-10 mg/kg were intraduodenally administered to anaesthetised rats. The intraduodenal route was chosen to mimic the oral route and to avoid the use of solvents necessary for intravenous administration.
• Species: Sprague Dawley rat • Sex: Female • Body weight: 200-270 g • Breeder: Charles River, Sulzfeld • Food/Tap water: pellets, ssniff M/R15, ad libitum, Spezialdiäten GmbH, Soest/Wesffalen, FRG • Conditions in animal housing: Rats were kept conventionally in groups of 6 in macrolon cages No. 4. • Room temperature: 20-24° C. • Relative humidity: 40-70%, deviations from the maximum range caused during cleaning procedure are possible • Light/Dark rhythm: 12/12 h light/dark cycle, light on at 6:00 a.m.
The food was withdrawn 16 hours before intraduodenal drug administration. Tap water was available ad libitum.
Flupirtine maleate or oxybutynin hydrochloride were suspended in hydroxyethylcellulose (0.5%) in demineralised water. The substances were ground in a mortar with pistil. The suspensions were placed on a magnetic stirrer before and during dosing procedures. The substances were freshly prepared in the morning and applied intraduodenally in a volume of 0.4 ml/100 g body weight. Control rats received hydroxyethylcellulose (0.5%) i.d.
The filling material, consisting of small globules, was ground in a mortar with pistil. Thereafter the grounded material was suspended in hydroxyethylcellulose (0.5%) in demineralised water. The suspensions were placed on a magnetic stirrer before and during dosing procedures for 10 minutes. The suspensions were freshly prepared in the morning and applied intraduodenally in a volume of 0.4 ml/100 g body weight to rats. Control rats received the same amount of hydroxyethylcellulose (0.5%) i.d.
The continuous registration lasted 1 hr. […] The frequency was evaluated for 10 min before (baseline) and within the observation period in intervals of 10 minutes starting 5, 20, 35 and 50 min after drug administration. For intraduodenal dosing, drugs were administered via a duodenal polyethylene tube to animals in aqueous suspension of 0.5% hydroxyethylcellulose.

[3] = 0.1 mg/kg i.d. single dose, group mean
[4] = 1.0 mg/kg i.d. single dose, group mean
[5] = 10 mg/kg i.d. single dose, group mean

For `CCN(CC)CC#CCOC(=O)C(O)(c1ccccc1)C1CCCCC1` (stereo not drawn) [oxybutynin hydrochloride, (α-Phenylcyclohexaneglycolicacid 4-[diethylamino]-2-butynyl ester hydrochloride], the “mean BP, change in percent from base value (Δ %)” value [1, 3] was −5%, the “mean BP Post (30-60 min), mean” value [1, 4] was 80.0-85.0 mm Hg and the “mean BP, change in percent from base value (Δ %)” value [1, 4] was −15%. For the same molecule, the “mean BP, change in percent from base value (Δ %)” value [1, 5] was −24%, the “mean arterial blood pressure decreased by” value ([1]; 10 mg/kg i.d., decrease) was 24% and the “block X/n (animals with blockade of bladder contraction)” value (shortened to “block X/n”) ([2]; 0.1 mg/kg i.d. single dose) was 3/3. The “block, blockade duration (group, min-max)” value (“block, blockade duration” for short) ([2]; 0.1 mg/kg i.d. single dose) was 4 to 6 min, the “amplitude Post (30-60 min), mean” value [2, 3] was 32.0-32.0 mm Hg and the “amplitude, change in percent from base value (Δ %)” value [2, 3] was −13%. For the same molecule, the “frequency Post (20-60 min), mean” value [2, 3] was 6.3-7.3 n/10 min, the “frequency, change in percent from base value (Δ %)” value [2, 3] was −12% and the “presence/absence of bladder contractions (block grade), individual animal” value (shortened to “presence/absence of bladder contractions”) ([2]; 0.1 mg/kg i.d.) was “(+) (+ or (+) = contractions abolished during 5-10 min time period)”. The “decrease in frequency, individual animal” value ([2]; 0.1 mg/kg i.d., hydrochloride) was “decrease in frequency by 25%,; also recorded: frequency by 50%”, the “duration of block, individual animal” value ([2]; 0.1 mg/kg i.d., hydrochloride) was ≤ 6 min and 5 min and max. 4 min, initial increase, and the “increase in frequency, individual animal” value ([2]; 0.1 mg/kg i.d., hydrochloride) was “frequency by 17%; also recorded: by 9% during 5-15th min”. For the same molecule, the “number of episodes of block per animal” value ([2]; 0.1 mg/kg i.d., hydrochloride) was 4 (2×) and 1, the “number of episodes of block per animal” value ([2]; 0.1 mg/kg i.d., listed as Oxybutynin hydrochloride, hydrochloride) was 1-4 and the “mean pressure peaks of the amplitude diminished/reduced by” value ([2]; 0.1 mg/kg i.d.) was 13%. For the same molecule, the “block X/n” value ([2]; 1.0 mg/kg i.d. single dose) was 3/3, the “amplitude, change in percent from base value (Δ %)” value [2, 4] was −20% and the “frequency, change in percent from base value (Δ %)” value [2, 4] was −68%. For the same molecule, the “amplitude Post (30-60 min), mean” value ([2]; 1.0 mg/kg i.d. single dose, group mean, hydrochloride) was 3/3 bl, the “presence/absence of bladder contractions” value ([2]; 1.0 mg/kg i.d., hydrochloride) was “+++ from 3 to 11th and 30 to (+++ = contractions abolished during 30-60 min time period); also recorded: ++ (++ = contractions abolished during 10-30 min time period)” and the “mean voiding frequency decreased by” value ([2]; 1 mg/kg i.d., decrease) was 68%. The “decrease in frequency, individual animal” value ([2]; 1.0 mg/kg i.d., hydrochloride) was “contractions by 100%; also recorded: frequency by 62%; also recorded: by 80%”, the “duration of block, individual animal” value ([2]; 1.0 mg/kg i.d., hydrochloride) was 9 min and 30 min and 7 to 16 min and 4 to 11 min and the “number of episodes of block per animal” value ([2]; 1.0 mg/kg i.d., hydrochloride) was 3-6 and 3 and 5. The “mean pressure peaks of the amplitude diminished/reduced by” value ([2]; 1 mg/kg i.d.) was 20%, the “block X/n” value ([2]; 10 mg/kg i.d. single dose) was 3/3 and the “amplitude, change in percent from base value (Δ %)” value [2, 5] was −38%. For the same molecule, the “frequency, change in percent from base value (Δ %)” value [2, 5] was “+22%”, the “block, blockade duration” value ([2]; 10 mg/kg i.d. single dose, hydrochloride) was 5 to 30 min and the “block, blockade duration” value ([2]; 10 mg/kg i.d. single dose, listed as Oxybutynin hydrochloride, hydrochloride) was 4 to 30 min. The “presence/absence of bladder contractions” value ([2]; 10 mg/kg i.d., hydrochloride) was “+ (+ or (+) = contractions abolished during 5-10 min time period); also recorded: ++ (++ = contractions abolished during 10-30 min time period)”, the “mean frequency averaged over all animals increased by” value ([2]; 10 mg/kg i.d., increase) was 22% and the “duration of block, individual animal” value ([2]; 10 mg/kg i.d., hydrochloride) was 4 min (2×) and 30 min. For the same molecule, the “increase in frequency, individual animal” value ([2]; 10 mg/kg i.d., hydrochloride) was “increase in frequency by 14%; also recorded: in frequency by 28%; also recorded: increase in frequency by 22%”, the “number of episodes of block per animal” value ([2]; 10 mg/kg i.d., hydrochloride) was 2 and 1 (2×) and the “mean pressure peaks of the amplitude diminished/reduced by” value ([2]; 10 mg/kg i.d.) was 38%. The “reduction in the amplitude, of the basal value” ([2]; dose range 0.1-10 mg/kg i.d., generally) was “no more than 60%”.
